Activity calls are given as the source filed them. The rule behind the calls is not given here.
How the values were obtained:
[1] = target: T1, Free fatty acid receptor 4 (Homo sapiens, UniProt Q5NUL3); test: Agonist activity at human GPR120 short isoform expressed in CHOK1 cells assessed as beta-arrestin recruitment after 90 mins by luminescence assay; assay type: cell-based, CHO-K1
T1 sequence (Q5NUL3 whole entry): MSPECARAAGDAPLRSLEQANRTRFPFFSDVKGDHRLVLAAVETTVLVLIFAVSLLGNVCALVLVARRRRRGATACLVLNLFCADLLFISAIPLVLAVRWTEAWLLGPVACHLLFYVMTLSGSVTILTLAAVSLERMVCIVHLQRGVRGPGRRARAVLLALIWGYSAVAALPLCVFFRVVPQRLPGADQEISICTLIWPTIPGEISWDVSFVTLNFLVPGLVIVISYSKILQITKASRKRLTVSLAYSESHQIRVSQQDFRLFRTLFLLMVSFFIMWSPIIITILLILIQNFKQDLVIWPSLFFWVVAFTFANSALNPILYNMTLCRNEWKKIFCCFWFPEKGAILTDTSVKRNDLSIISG

Mus musculus [2] = test: Glucose lowering effect in C57BL/6 transverse aortic constriction mouse assessed as reduction in blood glucose at 30 mg/kg, po pretreated for 60 mins as single dose via gavage followed by dextrose challenge measured up to 120 mins post glucose challenge by OGTT; assay type: functional, organism-based
[3] = target: Free fatty acid receptor 1 (Homo sapiens, UniProt O14842); test: Agonist activity at human GPR40 expressed in HEK293 cells assessed as increase in IP1 accumulation after 60 mins by HTRF assay; assay type: functional, cell-based
Sequence of Free fatty acid receptor 1 (Homo sapiens, UniProt O14842) (O14842 whole entry, canonical isoform): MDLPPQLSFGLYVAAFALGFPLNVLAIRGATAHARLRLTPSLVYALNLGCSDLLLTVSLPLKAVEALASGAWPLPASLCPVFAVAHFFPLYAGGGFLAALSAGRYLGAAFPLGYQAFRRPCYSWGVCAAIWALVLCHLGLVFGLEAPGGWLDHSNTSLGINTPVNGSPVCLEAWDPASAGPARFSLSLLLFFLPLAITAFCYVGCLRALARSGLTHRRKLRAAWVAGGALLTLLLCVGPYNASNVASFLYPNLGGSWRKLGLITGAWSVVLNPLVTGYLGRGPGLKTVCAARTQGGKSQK

[4] = target: T1, Free fatty acid receptor 4; test: Agonist activity at human GPR120 short isoform expressed in CHOK1 cells assessed as increase in IP1 accumulation after 60 mins by HTRF assay; assay type: functional, cell-based, CHO-K1
[5] = Plasma concentration in C57BL/6 transverse aortic constriction mouse at 30 mg/kg, po via gavage measured at 3 hrs; assay type: ADME, organism-based; settings: C57BL/6, mouse
[6] = target: T2, Free fatty acid receptor 4 (Homo sapiens) (UniProt Q5NUL3); test: Agonist activity at human GPR120 short isoform expressed in CHOK1 cells assessed as increase in IP1 accumulation at 10 uM after 60 mins by HTRF assay; assay type: functional, cell-based; settings: CHO-K1
T2 sequence (whole entry): T1 sequence (Q5NUL3 whole entry)

[7] = Clearance in rat plasma at 0.1 mg/kg administered as iv casette dose by LC/MS/MS analysis; assay type: ADME, organism-based
[8] = target: T3, Free fatty acid receptor 4 (Mus musculus, UniProt Q7TMA4); test: Agonist activity at mouse GPR120 expressed in CHOK1 cells assessed as increase in IP1 accumulation after 60 mins by HTRF assay; assay type: functional, cell-based, CHO-K1
T3 sequence (Q7TMA4 whole entry): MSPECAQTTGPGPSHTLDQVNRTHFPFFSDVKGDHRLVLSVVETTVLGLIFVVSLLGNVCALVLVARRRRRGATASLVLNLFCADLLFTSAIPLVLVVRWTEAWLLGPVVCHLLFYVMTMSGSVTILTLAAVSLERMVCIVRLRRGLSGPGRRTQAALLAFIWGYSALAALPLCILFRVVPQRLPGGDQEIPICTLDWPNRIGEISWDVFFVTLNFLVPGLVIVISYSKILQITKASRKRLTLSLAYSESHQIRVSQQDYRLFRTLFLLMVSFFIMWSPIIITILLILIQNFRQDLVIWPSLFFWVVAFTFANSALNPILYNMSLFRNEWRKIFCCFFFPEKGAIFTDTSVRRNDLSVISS

[9] = target: Free fatty acid receptor 1 (Mus musculus, UniProt Q76JU9); test: Agonist activity at mouse GPR40 assessed as increase in IP1 accumulation after 60 mins by HTRF assay; assay type: functional
Sequence of Free fatty acid receptor 1 (Mus musculus, UniProt Q76JU9) (Q76JU9 whole entry): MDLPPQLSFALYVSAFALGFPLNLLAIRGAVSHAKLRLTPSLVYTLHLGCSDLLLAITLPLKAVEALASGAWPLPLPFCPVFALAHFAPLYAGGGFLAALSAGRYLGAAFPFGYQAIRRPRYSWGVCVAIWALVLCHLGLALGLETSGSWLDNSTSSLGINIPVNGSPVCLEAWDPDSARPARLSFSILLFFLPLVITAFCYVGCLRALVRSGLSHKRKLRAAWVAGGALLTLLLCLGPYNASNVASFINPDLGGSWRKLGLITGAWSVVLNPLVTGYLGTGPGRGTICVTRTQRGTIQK

[10] = Plasma concentration in wild type C57BL/6 transverse aortic constriction mouse harboring GPR120 at 150 mg/kg, po measured at 3 hrs; assay type: ADME, organism-based; settings: C57BL/6, mouse
[11] = Terminal half life in rat plasma at 0.1 mg/kg administered as iv casette dose by LC/MS/MS analysis; assay type: ADME, organism-based; settings: read-out: beta t1/2 (converted)
[12] = Protein binding in rat plasma at 0.1 mg/kg administered as iv casette dose by LC/MS/MS analysis; assay type: ADME, organism-based; settings: read-out: PPB (converted)
[13] = Plasma concentration in GPR120 knockout C57BL/6 transverse aortic constriction mouse at 150 mg/kg, po measured at 3 hrs; assay type: ADME, organism-based; settings: C57BL/6, mouse
[14] = Intrinsic clearance in rat plasma at 0.1 mg/kg administered as iv casette dose by LC/MS/MS analysis; assay type: ADME, organism-based; settings: in vivo
Mus musculus [15] = test: In vivo agonist activity at GPR120 in wild type C57BL/6 transverse aortic constriction mouse assessed as glucose lowering effect at 150 mg/kg, po via gavage pretreated for 60 mins followed by dextrose challenge measured up to 120 mins post glucose challenge by OGTT; assay type: functional, organism-based
[16] = target: T3, Free fatty acid receptor 4; test: Agonist activity at mouse GPR120 expressed in human U2OS cells assessed as beta-arrestin recruitment after 90 mins by luminescence assay; assay type: cell-based
[17] = Volume of distribution at steady state in rat plasma at 0.1 mg/kg administered as iv casette dose by LC/MS/MS analysis; assay type: ADME, organism-based; settings: read-out: Vdss

SMILES	EC50 [1]	Activity (Mus musculus [2])	EC50 [3]	EC50 [4]	concentration at 3 h [5]	Activity [6]	clearance [7]	EC50 [8]	EC50 [9]	concentration at 3 h [10]	half-life [11]	fraction unbound [12]	concentration at 3 h [13]	CL [14]	Activity (Mus musculus [15])	EC50 [16]	Vd [17]
CO[C@H]1C[C@H](Oc2cc(F)c(F)c(-c3ccc4c(c3)CC[C@H]([C@@H]3C[C@H]3C(=O)O)O4)c2)C1	17 nM	Active	> 10 µM	45 nM	37.4 µM	> 50%											
COc1cc(O[C@H]2C[C@H](OC)C2)nc(-c2ccc3c(c2)CC[C@H](CCC(=O)O)O3)c1F	5 nM		> 10 µM	14 nM		> 50%	3.4 mL/min/kg	5.6 nM	> 10 µM	33.5 µM	144 min	0.0032	27.6 µM	760 mL/min/kg	Active	4.6 nM	0.49 L/kg
COc1cc(OC2CCC2)nc(-c2ccc3c(c2)CC[C@H](CCC(=O)O)O3)c1F	6.2 nM		> 10 µM	15 nM		> 50%											
O=C(O)CC[C@H]1CCc2cc(-c3nc(OC4CCC4)ccc3F)ccc2O1	21 nM		> 10 µM	30 nM		> 50%	9.1 mL/min/kg				44.4 min	0.0023		4500 mL/min/kg			0.23 L/kg
O=C(O)CC[C@H]1CCc2cc(-c3cc(OC(F)(F)F)ccc3F)ccc2O1	17 nM		2.1 µM	170 nM		> 50%	9.5 mL/min/kg				78 min	0.0016		10500 mL/min/kg			0.64 L/kg
Cc1cnc(Oc2cc(Cl)c(F)c(-c3ccc4c(c3)CC[C@H](CCC(=O)O)O4)c2)s1	5.6 nM		> 10 µM	14 nM		> 50%	1.6 mL/min/kg				55.8 min	0.0003		6200 mL/min/kg			0.14 L/kg
COc1cc(OC(F)(F)F)cc(-c2ccc3c(c2)CC[C@H](CCc2nnn[nH]2)O3)c1F	150 nM		> 10 µM	130 nM		45%											
Fc1ccc(OC(F)(F)F)cc1-c1ccc2c(c1)CC[C@H](CCc1nnn[nH]1)O2	890 nM		> 10 µM	330 nM		17%											
COc1cc(OC2CCC2)nc(-c2ccc3c(c2)CC[C@H]([C@@H]2C[C@H]2C(=O)O)O3)c1F	7.8 nM		> 10 µM	18 nM		> 50%											
O=C(O)CC[C@H]1CCc2cc(-c3cc(OC4CCC4)cc(F)c3F)ccc2O1	13 nM		> 10 µM	21 nM		> 50%	5.4 mL/min/kg				78 min	0.0007		8700 mL/min/kg			0.45 L/kg
O=C(O)[C@H]1C[C@@H]1[C@H]1CCc2cc(-c3cc(OC(F)(F)F)ccc3F)ccc2O1	130 nM		> 10 µM	320 nM		> 50%											
COc1cc(OC2CCC2)cc(-c2ccc3c(c2)CC[C@H](CCC(=O)O)O3)c1F	9 nM		> 10 µM	15 nM		> 50%											
O=C(O)CC[C@H]1CCc2cc(-c3cc(OC4CCC4)ncc3F)ccc2O1	230 nM		2 µM	250 nM		> 50%											
COc1cc(Oc2ncc(C)s2)cc(-c2ccc3c(c2)CC[C@H](CCC(=O)O)O3)c1F	13 nM		> 10 µM	37 nM		> 50%	1.6 mL/min/kg				72 min	0.0007		3600 mL/min/kg			0.15 L/kg

— ChEMBL document CHEMBL3871307, “Discovery of Chromane Propionic Acid Analogues as Selective Agonists of GPR120 with in Vivo Activity in Rodents” (ACS Med Chem Lett, 2017)
